# Activity calls are given as the source filed them.
# Assays:
# [1] = molecular target: T1, Sentrin-specific protease 7 (Homo sapiens, UniProt Q9BQF6); assay: SENP7 protease inhibitors, SAR follow-up, biochemical, luminescence (AID 504497); format: functional
# T1 sequence (Q9BQF6 whole entry): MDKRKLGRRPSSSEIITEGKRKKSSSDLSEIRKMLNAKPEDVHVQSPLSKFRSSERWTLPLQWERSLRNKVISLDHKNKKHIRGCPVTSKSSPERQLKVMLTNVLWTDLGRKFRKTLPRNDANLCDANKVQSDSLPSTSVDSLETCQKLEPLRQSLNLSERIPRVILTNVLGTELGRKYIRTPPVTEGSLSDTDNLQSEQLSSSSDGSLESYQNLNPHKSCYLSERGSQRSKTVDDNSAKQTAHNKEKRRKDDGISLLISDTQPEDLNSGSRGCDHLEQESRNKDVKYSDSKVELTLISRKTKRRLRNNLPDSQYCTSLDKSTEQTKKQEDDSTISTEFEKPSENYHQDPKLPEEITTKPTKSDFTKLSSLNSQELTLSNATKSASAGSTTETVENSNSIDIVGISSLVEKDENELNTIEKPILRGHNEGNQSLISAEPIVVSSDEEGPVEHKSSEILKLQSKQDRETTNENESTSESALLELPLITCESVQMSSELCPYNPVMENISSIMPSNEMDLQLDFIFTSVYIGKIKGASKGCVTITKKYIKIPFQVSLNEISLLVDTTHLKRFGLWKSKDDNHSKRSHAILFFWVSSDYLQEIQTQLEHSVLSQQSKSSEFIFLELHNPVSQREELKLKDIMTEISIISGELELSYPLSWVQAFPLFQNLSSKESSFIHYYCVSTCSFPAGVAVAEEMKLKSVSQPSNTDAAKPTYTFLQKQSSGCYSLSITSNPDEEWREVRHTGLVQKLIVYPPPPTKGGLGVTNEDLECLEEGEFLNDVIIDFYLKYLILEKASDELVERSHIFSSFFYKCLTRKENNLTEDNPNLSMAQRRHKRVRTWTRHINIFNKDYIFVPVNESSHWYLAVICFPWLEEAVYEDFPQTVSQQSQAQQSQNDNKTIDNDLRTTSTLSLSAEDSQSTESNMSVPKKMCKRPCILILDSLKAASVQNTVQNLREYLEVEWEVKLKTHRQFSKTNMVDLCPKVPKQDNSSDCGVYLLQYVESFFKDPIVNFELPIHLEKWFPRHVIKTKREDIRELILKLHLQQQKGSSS
# [2] = molecular target: T2, Sentrin-specific protease 8 (Homo sapiens, UniProt Q96LD8); assay: SENP8 protease inhibitors, SAR follow-up, biochemical, luminescence (AID 504501); format: functional
# T2 sequence (Q96LD8 whole entry): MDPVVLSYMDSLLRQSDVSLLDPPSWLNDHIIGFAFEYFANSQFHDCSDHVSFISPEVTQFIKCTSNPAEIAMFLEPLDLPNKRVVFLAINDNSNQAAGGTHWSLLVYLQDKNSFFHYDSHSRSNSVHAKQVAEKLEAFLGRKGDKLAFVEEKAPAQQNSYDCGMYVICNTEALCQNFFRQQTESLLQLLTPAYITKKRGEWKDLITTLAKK
# [3] = molecular target: T3, Caspase-3 (Homo sapiens, UniProt P42574); assay: SAR Analysis of small molecule inhibitors of Sentrin-specific proteases (SENPs) using a Caspase-3 Selectivity assay. [Related pubchem assays (depositor defined):AID2540, AID2599, AID434973, AID489001]; format: functional
# T3 sequence (P42574 whole entry): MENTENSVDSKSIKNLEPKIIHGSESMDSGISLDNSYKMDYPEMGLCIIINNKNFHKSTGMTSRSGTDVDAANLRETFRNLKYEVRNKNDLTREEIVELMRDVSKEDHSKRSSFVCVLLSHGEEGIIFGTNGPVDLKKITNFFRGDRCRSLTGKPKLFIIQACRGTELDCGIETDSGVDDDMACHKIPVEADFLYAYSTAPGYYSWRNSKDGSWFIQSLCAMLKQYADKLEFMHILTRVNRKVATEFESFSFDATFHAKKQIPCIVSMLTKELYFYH
# [4] = molecular target: T4, Sentrin-specific protease 6 (Homo sapiens, UniProt Q9GZR1); assay: SAR Analysis of small molecule inhibitors of Sentrin-specific protease 6 (SENP6) using a Luminescent assay. [Related pubchem assays (depositor defined):AID2582, AID2599]; format: functional
# T4 sequence (Q9GZR1 whole entry): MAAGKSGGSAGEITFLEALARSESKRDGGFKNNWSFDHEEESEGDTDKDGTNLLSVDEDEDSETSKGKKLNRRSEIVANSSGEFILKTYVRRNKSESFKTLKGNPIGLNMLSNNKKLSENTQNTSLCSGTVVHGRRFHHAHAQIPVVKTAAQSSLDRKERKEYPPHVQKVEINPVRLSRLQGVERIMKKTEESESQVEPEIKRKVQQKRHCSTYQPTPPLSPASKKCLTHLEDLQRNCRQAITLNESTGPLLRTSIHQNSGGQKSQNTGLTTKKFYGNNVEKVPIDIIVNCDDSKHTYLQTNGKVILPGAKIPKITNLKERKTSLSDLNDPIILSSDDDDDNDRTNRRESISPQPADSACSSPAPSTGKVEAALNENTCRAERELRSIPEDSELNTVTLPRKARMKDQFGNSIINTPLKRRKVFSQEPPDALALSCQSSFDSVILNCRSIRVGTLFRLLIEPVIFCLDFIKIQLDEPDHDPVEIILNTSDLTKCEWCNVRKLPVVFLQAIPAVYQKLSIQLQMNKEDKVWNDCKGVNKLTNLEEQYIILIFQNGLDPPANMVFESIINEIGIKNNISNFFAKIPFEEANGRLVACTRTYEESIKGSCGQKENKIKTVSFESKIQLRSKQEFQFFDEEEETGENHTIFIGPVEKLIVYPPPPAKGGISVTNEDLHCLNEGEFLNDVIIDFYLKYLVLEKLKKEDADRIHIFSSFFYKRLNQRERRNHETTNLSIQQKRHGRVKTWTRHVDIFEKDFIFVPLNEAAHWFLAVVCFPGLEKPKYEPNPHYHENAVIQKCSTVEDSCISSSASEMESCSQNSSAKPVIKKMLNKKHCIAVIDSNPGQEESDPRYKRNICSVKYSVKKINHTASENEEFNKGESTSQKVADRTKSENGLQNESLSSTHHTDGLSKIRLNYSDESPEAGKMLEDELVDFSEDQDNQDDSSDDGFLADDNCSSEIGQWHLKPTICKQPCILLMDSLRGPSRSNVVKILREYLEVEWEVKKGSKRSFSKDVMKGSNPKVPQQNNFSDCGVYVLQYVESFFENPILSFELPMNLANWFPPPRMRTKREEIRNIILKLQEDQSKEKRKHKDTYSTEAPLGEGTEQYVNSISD
# [5] = tested on: HEK293; assay: optical interference in Abeta FP readout, dose response, artefact control for IDE activator project, biochemical, fluorescence polarization (AID 588442); format: functional, cell-based; details: Homo sapiens
# [6] = molecular target: T5, Insulin-degrading enzyme (Homo sapiens, UniProt P14735); assay: activators of endogenous IDE in HEK cells, dose response, cell-based, fluorescence polarization (AID 588439); format: functional
# T5 sequence (P14735 whole entry): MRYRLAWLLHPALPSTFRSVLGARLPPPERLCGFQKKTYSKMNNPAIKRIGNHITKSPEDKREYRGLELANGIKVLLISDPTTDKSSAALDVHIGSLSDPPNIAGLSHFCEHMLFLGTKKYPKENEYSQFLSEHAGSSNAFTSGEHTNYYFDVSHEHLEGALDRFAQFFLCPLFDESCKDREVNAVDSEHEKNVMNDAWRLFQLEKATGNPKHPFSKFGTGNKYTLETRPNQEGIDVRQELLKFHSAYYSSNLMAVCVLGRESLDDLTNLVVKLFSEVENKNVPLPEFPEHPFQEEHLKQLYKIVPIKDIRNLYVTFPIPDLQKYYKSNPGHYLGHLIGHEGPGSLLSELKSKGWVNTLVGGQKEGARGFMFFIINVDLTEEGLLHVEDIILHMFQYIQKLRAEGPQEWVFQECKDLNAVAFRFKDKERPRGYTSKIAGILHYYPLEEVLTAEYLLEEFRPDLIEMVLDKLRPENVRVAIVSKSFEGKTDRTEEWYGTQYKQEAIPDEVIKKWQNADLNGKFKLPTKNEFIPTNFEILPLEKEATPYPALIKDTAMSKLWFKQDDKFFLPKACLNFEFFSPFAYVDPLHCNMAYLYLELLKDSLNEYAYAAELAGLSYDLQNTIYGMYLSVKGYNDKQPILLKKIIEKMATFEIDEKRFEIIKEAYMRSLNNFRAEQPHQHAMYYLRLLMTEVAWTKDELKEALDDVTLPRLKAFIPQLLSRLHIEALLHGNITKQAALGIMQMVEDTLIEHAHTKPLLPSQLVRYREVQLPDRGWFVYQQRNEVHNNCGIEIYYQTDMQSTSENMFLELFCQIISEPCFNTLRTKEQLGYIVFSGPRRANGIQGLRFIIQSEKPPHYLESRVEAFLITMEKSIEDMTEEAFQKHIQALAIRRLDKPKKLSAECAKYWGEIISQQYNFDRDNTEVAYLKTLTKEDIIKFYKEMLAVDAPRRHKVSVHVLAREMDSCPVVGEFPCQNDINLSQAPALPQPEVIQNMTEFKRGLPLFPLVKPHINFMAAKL
# [7] = molecular target: T5, Insulin-degrading enzyme; assay: activators of recombinant IDE enzyme, dose response, counter-screen for IDE activator project, biochemical, fluorescence polarization (AID 588681)
# [8] = tested on: HEK293; assay: HEK cell cytotoxicity by LDH release, dose response, cytotoxicity control for IDE activator project, fluorescence, HEK cells (AID 588440); format: functional, cell-based; details: Homo sapiens;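 note: cytotoxicity by LDH release measuring loss of membrane integrity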
# [9] = molecular target: Melanin-concentrating hormone receptor 1 (Homo sapiens, UniProt Q99705); assay: Late-stage fluorescence-based counterscreen for antagonists of the G-protein coupled receptor 7 (GPR7): cell-based dose response assay to identify antagonists of the melanin-concentrating hormone receptor 1 (MCHR1) Set 6.; format: functional
# Chain of Melanin-concentrating hormone receptor 1 (Q99705 whole entry): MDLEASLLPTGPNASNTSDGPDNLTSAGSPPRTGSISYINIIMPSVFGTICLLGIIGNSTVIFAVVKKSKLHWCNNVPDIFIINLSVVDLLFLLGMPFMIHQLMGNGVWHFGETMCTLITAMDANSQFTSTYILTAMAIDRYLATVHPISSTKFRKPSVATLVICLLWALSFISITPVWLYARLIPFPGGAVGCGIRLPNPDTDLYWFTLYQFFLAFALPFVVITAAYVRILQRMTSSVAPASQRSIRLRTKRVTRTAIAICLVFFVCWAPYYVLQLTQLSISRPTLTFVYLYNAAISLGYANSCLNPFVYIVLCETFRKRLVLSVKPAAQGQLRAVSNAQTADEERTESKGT
# [10] = molecular target: T6, Neuropeptides B/W receptor type 1 (Homo sapiens, UniProt P48145); assay: GPR7 antagonist potency, late-stage follow-up, cell-based, fluorescence, dose response, set 6 (AID 588583); format: functional
# T6 sequence (P48145 whole entry): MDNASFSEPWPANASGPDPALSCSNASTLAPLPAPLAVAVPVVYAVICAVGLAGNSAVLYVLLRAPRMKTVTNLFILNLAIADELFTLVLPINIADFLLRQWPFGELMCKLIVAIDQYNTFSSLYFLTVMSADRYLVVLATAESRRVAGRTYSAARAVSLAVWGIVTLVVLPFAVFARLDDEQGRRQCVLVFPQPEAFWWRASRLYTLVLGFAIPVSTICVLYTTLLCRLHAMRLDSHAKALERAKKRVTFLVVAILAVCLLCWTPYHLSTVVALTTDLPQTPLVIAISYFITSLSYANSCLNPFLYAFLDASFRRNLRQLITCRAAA
# [11] = molecular target: T7, High affinity choline transporter 1 (Homo sapiens, UniProt Q9GZV3); assay: CHT inhibitors, dose response, cell-based, 5-point CRC, membrane potential dye (AID 504840); format: functional
# T7 sequence (Q9GZV3 whole entry): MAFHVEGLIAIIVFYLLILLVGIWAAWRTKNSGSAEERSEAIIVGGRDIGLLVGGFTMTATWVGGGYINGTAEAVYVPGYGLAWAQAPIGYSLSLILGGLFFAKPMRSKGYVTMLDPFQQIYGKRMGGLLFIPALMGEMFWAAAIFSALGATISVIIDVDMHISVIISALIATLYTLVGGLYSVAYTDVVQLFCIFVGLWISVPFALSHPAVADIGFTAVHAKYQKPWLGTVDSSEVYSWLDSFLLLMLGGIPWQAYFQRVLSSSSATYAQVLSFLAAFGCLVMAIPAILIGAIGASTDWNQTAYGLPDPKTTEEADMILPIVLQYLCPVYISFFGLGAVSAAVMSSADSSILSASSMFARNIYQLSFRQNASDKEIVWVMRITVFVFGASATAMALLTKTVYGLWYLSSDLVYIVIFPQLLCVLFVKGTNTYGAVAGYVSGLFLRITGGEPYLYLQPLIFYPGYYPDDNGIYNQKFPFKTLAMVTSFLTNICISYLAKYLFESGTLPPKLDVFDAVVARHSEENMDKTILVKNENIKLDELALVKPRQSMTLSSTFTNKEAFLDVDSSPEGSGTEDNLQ
# [12] = molecular target: T7, High affinity choline transporter 1; assay: CHT inhibitors, dose response, cell-based, 10-point CRC, membrane potential dye (AID 588401); format: functional;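 note: membrane potential dye fluorescence of choline-evoked depolarization via CHT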
# [13] = molecular target: T8, Endoribonuclease toxin MazF (Escherichia coli K-12, UniProt P0AE70); assay: MazF toxin RNase activators, dose response, biochemical, fluorescence, single-stranded RNA substrate, uHTS hits (AID 588481); format: functional
# T8 sequence (P0AE70 whole entry): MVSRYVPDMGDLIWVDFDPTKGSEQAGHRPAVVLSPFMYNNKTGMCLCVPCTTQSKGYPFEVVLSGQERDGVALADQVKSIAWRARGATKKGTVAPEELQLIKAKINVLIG
# [14] = molecular target: T8, Endoribonuclease toxin MazF; assay: fluorescent RNA oligo signal without MazF, dose response, counter-screen for MazEF activator project, biochemical, fluorescence, single-stranded RNase substrate (AID 588502); format: functional
# [15] = molecular target: Benomyl/methotrexate resistance protein (Candida albicans, UniProt P28873); assay: CaMdr1 efflux pump inhibitor potency, dose response, singleplex, Cherry Pick1 hits (AID 588608); format: functional
# Chain of Benomyl/methotrexate resistance protein (P28873 whole entry): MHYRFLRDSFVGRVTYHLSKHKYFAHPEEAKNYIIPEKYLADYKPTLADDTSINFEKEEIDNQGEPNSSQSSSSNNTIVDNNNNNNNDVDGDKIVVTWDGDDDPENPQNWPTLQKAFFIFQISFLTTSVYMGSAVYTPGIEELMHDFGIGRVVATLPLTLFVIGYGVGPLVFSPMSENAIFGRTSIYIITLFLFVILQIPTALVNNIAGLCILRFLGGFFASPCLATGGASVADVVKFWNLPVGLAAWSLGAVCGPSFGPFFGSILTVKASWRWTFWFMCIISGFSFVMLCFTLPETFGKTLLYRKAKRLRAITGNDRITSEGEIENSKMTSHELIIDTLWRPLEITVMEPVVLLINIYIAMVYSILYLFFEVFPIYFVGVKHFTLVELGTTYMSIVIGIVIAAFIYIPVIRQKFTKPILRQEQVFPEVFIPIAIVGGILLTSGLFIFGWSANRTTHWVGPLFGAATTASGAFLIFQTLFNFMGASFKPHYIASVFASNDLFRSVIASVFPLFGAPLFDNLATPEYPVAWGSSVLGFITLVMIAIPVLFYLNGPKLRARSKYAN
compound,measurement,setting,value
N#Cc1c(NC(=O)c2ccc(Cn3cc(Br)cn3)o2)sc2c1CCCCCC2,IC50,[1],> 99 µM (inactive)
same,IC50,[2],> 99 µM (inactive)
same,IC50,[3],> 99 µM (inactive)
same,IC50,[4],> 99 µM (inactive)
CNC[C@@H]1Oc2ccc(NS(=O)(=O)c3ccc(OC)cc3)cc2CC(=O)N([C@H](C)CO)C[C@@H]1C,EC50,[5],> 55.9 µM (inactive)
same,EC50,[6],> 54.7 µM (inactive)
same,EC50,[7],> 54.7 µM (inactive)
same,IC50,[8],> 89.2 µM (inactive)
N#CC(c1cccc(C(F)(F)F)c1)c1c(Cl)cnn(Cc2cccc3ccccc23)c1=O (stereo not drawn),IC50,[9],1.53 µM (active)
same,IC50,[10],1.53 µM (active)
O=C(C[n+]1cccc(Br)c1)c1ccccc1,IC50,[11],3.23 µM (active)
same,IC50,[12],2.84 µM (active)
COc1ccc(/C=C2\SC(c3ccc(C)cc3)=NC2=O)cc1OC,EC50,[13],> 99 µM (inactive)
same,EC50,[14],> 99 µM (inactive)
same,EC50,[15],5.12 µM (active)
Cc1nnc(C(C#N)c2c(Cl)cnn(Cc3cccc4ccccc34)c2=O)o1 (stereo not drawn),IC50,[9],0.435 µM (active)
same,IC50,[10],0.435 µM (active)
CCCCc1ccc2nc(NC(=O)c3csc4ccccc34)sc2c1,IC50,[1],> 99 µM (inactive)
same,IC50,[2],> 99 µM (inactive)
same,IC50,[3],> 99 µM (inactive)
same,IC50,[4],> 99 µM (inactive)
CC(=O)OC1CC2(C)C(=O)CCC2C2CCc3cc(O)ccc3C12 (stereo not drawn),IC50,[11],9.28 µM (active)
same,IC50,[12],3.36 µM (active)

# Reference: ChEMBL document CHEMBL1201862, “PubChem BioAssay data set” (2004)
